This note sets out measurements from ChEMBL document CHEMBL1148010, “Synthesis and biological evaluation of 2beta,3alpha-(substituted phenyl)nortropanes as potential norepinephrine transporter imaging agents” (Bioorg Med Chem Lett, 2007).

Structures are written as SMILES.

In data set [1] the target is Sodium-dependent noradrenaline transporter (Homo sapiens, UniProt P23975). The data set is described as follows: Displacement of [3H]nisoxetine from human NET expressed in HEK293 cells. It is filed as cell-based. (In general: Displacement assays read how much labelled ligand stays bound in the presence of the test substance.)
Chain of Sodium-dependent noradrenaline transporter (P23975 whole entry): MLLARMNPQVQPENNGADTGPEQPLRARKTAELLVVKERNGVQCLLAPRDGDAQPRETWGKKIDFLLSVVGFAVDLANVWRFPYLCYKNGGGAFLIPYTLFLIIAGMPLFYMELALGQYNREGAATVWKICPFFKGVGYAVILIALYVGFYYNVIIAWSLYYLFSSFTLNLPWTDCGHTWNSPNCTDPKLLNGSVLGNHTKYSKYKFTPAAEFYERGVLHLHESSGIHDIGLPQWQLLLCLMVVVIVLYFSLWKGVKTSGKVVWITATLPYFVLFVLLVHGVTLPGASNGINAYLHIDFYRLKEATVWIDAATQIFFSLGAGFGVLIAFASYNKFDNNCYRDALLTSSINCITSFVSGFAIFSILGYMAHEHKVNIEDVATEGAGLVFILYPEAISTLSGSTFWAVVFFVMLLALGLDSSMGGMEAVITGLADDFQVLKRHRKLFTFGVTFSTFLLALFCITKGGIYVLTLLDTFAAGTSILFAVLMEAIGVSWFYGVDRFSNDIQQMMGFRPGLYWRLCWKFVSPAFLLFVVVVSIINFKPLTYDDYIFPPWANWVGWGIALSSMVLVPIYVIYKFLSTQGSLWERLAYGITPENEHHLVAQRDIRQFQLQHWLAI
Data set [2] concerns the target Serotonin and norepinephrine transporters (SERT/NET) (Homo sapiens, UniProt P31645+P23975). Description: Selectivity of human NET over human SERT expressed in HEK293 cells. It is filed as cell-based.
Data set [3] deals with Monoamine transporters; Norepinephrine & dopamine (Homo sapiens, UniProt Q01959+P23975). The data set is described as follows: Selectivity of human NET over human DAT expressed in HEK293 cells. In kind it is cell-based.
Data set [4] addresses Sodium-dependent serotonin transporter (Homo sapiens, UniProt P31645). The data set is described as follows: Displacement of [3H]citalopram from human SERT expressed in HEK293 cells. In kind it is cell-based.
Data set [5] addresses Sodium-dependent dopamine transporter (Homo sapiens, UniProt Q01959). Description: Displacement of [125I]RTI55 from human DAT expressed in HEK293 cells. It is filed as cell-based.
Data set [6] in a line: Drug level in Rhesus monkey plasma assessed as unmetabolized fractions at 10 mins. It is filed as ADME, cell-free, Macaca mulatta. As to conditions: read-out: Activity.
A short description of data set [7]: Drug level in Rhesus monkey plasma assessed as unmetabolized fractions at 3 mins. To be noted: read-out: Activity. In kind it is ADME, cell-free, Macaca mulatta.
A short description of data set [8]: Drug level in Rhesus monkey plasma assessed as unmetabolized fractions at 30 mins. In kind it is ADME, cell-free, Macaca mulatta. As to conditions: read-out: Activity.

Chain of Sodium-dependent serotonin transporter (P31645 whole entry): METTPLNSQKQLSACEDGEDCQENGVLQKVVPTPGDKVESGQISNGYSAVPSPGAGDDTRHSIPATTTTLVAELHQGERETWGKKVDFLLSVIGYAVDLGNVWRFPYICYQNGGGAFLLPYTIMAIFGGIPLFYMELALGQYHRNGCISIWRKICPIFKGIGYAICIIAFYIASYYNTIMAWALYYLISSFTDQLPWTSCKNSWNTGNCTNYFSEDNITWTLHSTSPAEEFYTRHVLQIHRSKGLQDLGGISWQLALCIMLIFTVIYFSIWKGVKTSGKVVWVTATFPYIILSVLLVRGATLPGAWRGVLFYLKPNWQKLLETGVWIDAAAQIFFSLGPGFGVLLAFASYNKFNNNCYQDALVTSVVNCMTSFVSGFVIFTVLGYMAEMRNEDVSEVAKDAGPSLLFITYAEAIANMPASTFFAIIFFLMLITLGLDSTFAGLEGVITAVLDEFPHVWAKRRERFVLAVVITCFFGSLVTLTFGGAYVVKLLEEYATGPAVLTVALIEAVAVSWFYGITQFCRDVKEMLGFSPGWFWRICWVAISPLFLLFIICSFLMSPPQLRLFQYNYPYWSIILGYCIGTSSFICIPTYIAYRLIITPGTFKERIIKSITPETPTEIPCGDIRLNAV
Chain of Sodium-dependent dopamine transporter (Q01959 whole entry): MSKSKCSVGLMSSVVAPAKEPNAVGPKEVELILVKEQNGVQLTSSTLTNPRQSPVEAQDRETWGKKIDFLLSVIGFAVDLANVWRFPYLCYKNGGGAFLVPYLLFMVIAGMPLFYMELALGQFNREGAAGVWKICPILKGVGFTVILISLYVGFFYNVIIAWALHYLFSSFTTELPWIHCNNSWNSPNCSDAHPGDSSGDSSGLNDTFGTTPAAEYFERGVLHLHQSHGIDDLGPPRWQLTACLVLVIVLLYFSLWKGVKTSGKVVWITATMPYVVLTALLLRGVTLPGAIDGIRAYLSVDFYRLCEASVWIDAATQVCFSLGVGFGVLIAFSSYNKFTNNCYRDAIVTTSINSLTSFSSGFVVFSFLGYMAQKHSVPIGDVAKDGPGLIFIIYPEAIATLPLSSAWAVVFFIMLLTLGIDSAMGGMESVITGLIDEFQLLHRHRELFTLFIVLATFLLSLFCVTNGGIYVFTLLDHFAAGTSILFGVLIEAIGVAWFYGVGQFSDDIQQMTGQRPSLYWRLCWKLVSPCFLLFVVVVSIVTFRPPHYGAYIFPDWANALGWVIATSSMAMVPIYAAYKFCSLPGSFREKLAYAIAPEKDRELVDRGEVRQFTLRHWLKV

By Ki is commonly meant a dissociation constant, usually derived from enzyme kinetics or from competition with a known ligand. As to `COC(=O)[C@@H]1[C@H]2CC[C@H](C[C@H]1c1ccc(C)cc1)N2`, the Ki in data set [1] worked out at 4.88 nM; in data set [4], 136 nM; in data set [5], 11.5 nM. Also, the “NET over SERT selectivity ratio” value in data set [2] was 28 nM. In addition, in data set [3], the “NET over DAT selectivity ratio (no unit)” value is on record as 2.3 nM.
For `Cc1ccc([C@@H]2C[C@H]3CC[C@@H](N3)[C@H]2C(=O)O[11CH3])cc1F`, the remaining at 10 min in data set [6] was 7.5%. Moreover, the remaining at 0.05 h in data set [7] is 25%. For the same compound, the remaining at 0.5 h in data set [8] stood at 1.6%.
Regarding `COC(=O)[C@@H]1[C@H]2CC[C@H](C[C@H]1c1ccc(C)c(F)c1)N2`, the Ki in data set [1] is 1.78 nM; in data set [4] it was 42.8 nM; in data set [5], 6.42 nM. Further, in data set [2], the “NET over SERT selectivity ratio” value amounted to 24 nM. Further, the “NET over DAT selectivity ratio (no unit)” value in data set [3] turned out to be 3.6 nM.
Consider `C=Cc1ccc([C@@H]2C[C@H]3CC[C@@H](N3)[C@H]2C(=O)OC)cc1`, for which the figures for the Ki in data set [1], in data set [4] and in data set [5] were 4.67 nM, 9.04 nM and 10.1 nM, respectively. In addition, the “NET over SERT selectivity ratio” value in data set [2] came to 1.9 nM. Further, the “NET over DAT selectivity ratio (no unit)” value in data set [3] amounted to 2.2 nM.
As to `C#Cc1ccc([C@@H]2C[C@H]3CC[C@@H](N3)[C@H]2C(=O)OC)cc1`, the results for the Ki in data set [1], in data set [4] and in data set [5] were 1.86 nM, 3.45 nM and 2.26 nM, respectively. Also, in data set [2], the “NET over SERT selectivity ratio” value amounted to 1.8 nM. Also, the “NET over DAT selectivity ratio (no unit)” value in data set [3] is 1.2 nM.
On to `COC(=O)[C@@H]1[C@H]2CC[C@H](C[C@H]1c1ccc(I)cc1)N2`, for which the Ki stood at 1.98 nM in data set [1], 4.16 nM in data set [4] and 2.25 nM in data set [5]. In addition, the “NET over SERT selectivity ratio” value in data set [2] was found to be 2.1 nM. For the same compound, the “NET over DAT selectivity ratio (no unit)” value in data set [3] was 1.1 nM.
